Reference: patent US12123031B2, “Regulation of CRISPR-associated rossman fold (CARF) domain containing proteins by oligoadenylates” (VILNIUS UNIVERSITY, priority 2017, dated 2024)

What was measured:
[1] = target: T1, StCsm complex (Palm domain of StCas10 subunit) (Streptococcus thermophilus, UniProt A0A0A7HFE1); assay: Nucleotide binding assay (EMSA); conditions: for affinity towards nucleotide: EMSA, binary and ternary StCsm
T1 construct: made in house; host or cells: Escherichia coli BL21 (DE3)
Method: Nucleotide binding assay. Nucleotide binding assays were performed by incubating different amounts of StCsm complexes with 10 nM of ^32P-radiolabeled-nucleoside triphosphates in the Binding buffer (40 mM Tris, 20 mM acetic acid (pH 8.4 at 25° C.), 1 mM EDTA, 0.1 mg/ml BSA, 10% (v/v) glycerol). All reactions were incubated for 15 min at room temperature prior to electrophoresis on native 8% (w/v) polyacrylamide gel (PAAG). Electrophoresis was carried out at room temperature for 2 h at 6 V/cm using 40 mM Tris, 20 mM acetic acid (pH 8.4 at 25° C.), 0.1 mM EDTA as the running buffer. Gels were dried and visualized by a FLA-5100 phosphorimager (Fujifilm).
NTP binding by binary and ternary StCsm complexes was monitored using EMSA. The binding reactions contained 2 nM of α^32P-radiolabeled and 8 nM of the corresponding non-labeled nucleotide (ATP, 2′dATP, 3′dATP, GTP, UTP or CTP (Perkin Elmer)) in addition to the StCsm complex (without RNA, with the target RNA S3/2 or non-specific RNA NS, as denoted above the gels), at concentrations indicated by each lane. Samples were analyzed in PAAG under non-denaturing conditions.

ternary StCsm complex = target: T2, ternary StCsm complex (Streptococcus thermophilus, UniProt A0A0A7HFE1); assay: StCsm mediated conversion of nucleoside triphosphates to reaction products (TLC); format: biochemical; conditions: 200 nM ternary StCsm, 50 μM nucleotide, 10 mM CoCl2, 37° C.
T2 construct: made in house; host or cells: Escherichia coli BL21 (DE3)
Method: StCsm mediated synthesis of cyclic oligoadenylates from ATP. The synthesis reactions of cyclic oligoadenylates by StCsm were initiated by adding 10 mM CoCl2 into a mix of 200 nM StCsm, 200 nM target RNA, 50 μM ATP and 10 nM α^32P-ATP in the Reaction buffer (33 mM Tris-acetate (pH 7.6 at 37° C.), 66 mM K-acetate, 0.1 mg/ml BSA) and carried out at 37° C. for 1 h or 1.5 h, unless stated otherwise. StCsm reactions on different nucleoside triphosphates contained 200 nM of ternary StCsm, 50 μM of the non-labeled nucleotide and 10 nM of the corresponding α^32P-nucleotide. The reactions were stopped by adding 15 mM EDTA. Reaction products were separated by TLC on PEI Cellulose F plates (Merck) in 0.5 M phosphate buffer (pH 3.5 at 23° C.) or a denaturating 24% (19:1 acrylamide:bis-acrylamide) PAAG and visualized using autoradiography.
(FIG. 1A) ATP reaction of an individual StCas10 subunit. The reactions contained 200 nM StCas10, 50 μM ATP, 10 nM α^32P-ATP (Perkin Elmer), 200 nM target RNA S3/2 and/or 5 nM M13 mp18 ssDNA. The assays were performed at 37° C. in the Reaction buffer supplemented with 10 mM CoCl2. Samples were analyzed by thin-layer chromatography (TLC), followed by phosphorimaging. Reaction products of the binary StCsm complex (Cas/Csm proteins plus crRNA) and ATP in the absence or in the presence of single-stranded (ss) DNA are presented in (FIG. 1B) and (FIG. 1C), respectively. Reaction products of the ternary StCsm complex (Cas/Csm proteins plus crRNA and target RNA) and ATP in the absence or in the presence of ssDNA are presented in (FIG. 1D) and (FIG. 1E), respectively. The reactions contained 200 nM of the binary or ternary StCsm, 50 μM ATP, 10 nM α^32P-ATP and 10 nM M13 mp18 ssDNA. The assays were performed at 37° C. in the Reaction buffer supplemented with 10 mM CoCl2 and the samples were analyzed by TLC, followed by phosphorimaging. Heating α^32P-ATP at 95° C. for 60 min was used to generate radiolabeled ADP and AMP, which were used as a TLC control (marked as lane M). Rate constants of ATP decay, which are presented bellow each TLC plate, were calculated by fitting single exponentials to the substrate depletion data. Cartoons above the graphs depict reaction components: protospacer is grey in between black lines, the complementary strand (matching spacer in crRNA) is lighter grey, DNA is a black circle.
(FIG. 3A) Cartoons above gels depict ternary StCsm complexes that differ in the bound target RNA molecules in the same manner as in FIG. 1. The agarose gels show degradation patterns of 1 nM of circular M13 mp18 ssDNA in the presence of 5 nM ternary StCsm complexes containing different RNAs FIG. 3A is reproduced from (1). All RNA substrates used here are bound and cleaved by the StCsm ribonuclease (2). (FIG. 3B) Reaction products of various ternary StCsm complexes with ATP. The reactions contained 200 nM of the ternary StCsm with different nucleic acids (NA), 50 μM ATP and 10 nM α^32P-ATP. The assays were performed at 37° C. in the Reaction buffer supplemented with 10 mM CoCl2 and the samples were analyzed by TLC, followed by phosphorimaging. Heating α^32P-ATP at 95° C. for 60 min was used to generate radiolabeled ADP and AMP, which were used as a TLC control (marked as lane M).
(A) Ternary StCsm complex was incubated with ATP, 2′dATP, 3′dATP, GTP, CTP or UTP radiolabeled nucleotides. The reactions contained 200 nM of the ternary StCsm, 50 μM of the non-labeled nucleotide and 10 nM of the corresponding α^32P-nucleotide. The assays were performed at 37° C. for 60 min in the Reaction buffer supplemented with 10 mM CoCl2 and samples were analyzed by TLC, followed by phosphorimaging. (B) The products of StCsm-mediated 2′dATP reaction were further analyzed by ion pair reverse-phase (RP) HPLC-MS. On the left panel, HPLC analysis is presented. On the right panels, the isotopic patterns of ions (without one, (M-H)-, or two (M-2H)2-protons) of the identified compounds are presented.

StCsm6 = target: T3, StCsm6 (Streptococcus thermophilus, UniProt A0A0A7HIX6); assay: Csm6 nuclease assay, StCsm6; format: biochemical
T3 construct: HSH (StrepII tag plus two 6xHis tags) (N); made in house; host or cells: E. coli DH10B (ara)
T3 sequence (A0A0A7HIX6 1-428): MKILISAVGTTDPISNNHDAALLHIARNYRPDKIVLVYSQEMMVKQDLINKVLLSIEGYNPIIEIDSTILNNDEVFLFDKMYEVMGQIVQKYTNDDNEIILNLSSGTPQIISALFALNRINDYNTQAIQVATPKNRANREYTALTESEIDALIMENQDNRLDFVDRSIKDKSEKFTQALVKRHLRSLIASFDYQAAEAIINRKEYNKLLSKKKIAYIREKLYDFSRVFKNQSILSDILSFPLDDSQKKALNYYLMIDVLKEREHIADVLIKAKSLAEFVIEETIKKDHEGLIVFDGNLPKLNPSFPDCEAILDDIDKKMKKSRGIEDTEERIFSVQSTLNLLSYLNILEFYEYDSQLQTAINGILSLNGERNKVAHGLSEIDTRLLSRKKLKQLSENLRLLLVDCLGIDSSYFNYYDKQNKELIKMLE
Method: Csm6 nuclease assay. […] 5′P-oligoadenylates were obtained by incubating 3.(3) μM of non-phosphorylated linear oligoadenylate with 0.5 U T4 polynucleotide kinase and 1 mM ATP in the Reaction buffer A at 37° C. for 40 min.
Reactions were started by adding 0-10 μM Csm6 and carried out at 37° C. The reaction products were separated on a denaturing 15% (29:1 acrylamide:bis-acrylamide) PAAG and visualized by autoradiography. StCsm6 nuclease assays with ATP additionally contained 1 mM of ATP in the reaction mixture.

StCsm6′ = target: T4, StCsm6′ (Streptococcus thermophilus, UniProt A0A0A7HFE6); assay: Csm6 nuclease assay, StCsm6′; format: biochemical; conditions: ssRNA NS, 37° C. 30 min, 50 nM individual cyclic oligoadenylate
T4 construct: HSH (StrepII tag plus two 6xHis tags) (N); made in house; host or cells: E. coli DH10B (ara)
Method: Csm6 nuclease assay. StCsm6, StCsm6′, and TtCsm6 nuclease assays were conducted in the Reaction buffer (33 mM Tris-acetate (pH 7.6 at 37° C.), 66 mM K-acetate, 0.1 mg/ml BSA) supplemented with 1 mM EDTA and containing 5 nM of 5′-radiolabeled and 5 nM of unlabeled RNA NS (unless stated otherwise; see all RNA substrates used in this study in Table 1) and 500 nM of cyclic oligoadenylate mixture or 0.5-500 nM of the HPLC purified cyclic oligoadenylate effectors or 5-500 nM linear oligoadenylate with various phosphorylation levels—linear oligoadenylate 5′-triphosphate (ChemGenes); non-phosphorylated, 3′P (Metabion) or 5′P containing linear oligoadenylates. 5′P-oligoadenylates were obtained by incubating 3.(3) μM of non-phosphorylated linear oligoadenylate with 0.5 U T4 polynucleotide kinase and 1 mM ATP in the Reaction buffer A at 37° C. for 40 min. […]
(FIG. 20A) Domain arrangement of StCsm6′. […] The elution profile of the StCsm6′ is presented with the calculated experimental molecular weight 108.1 kDa, corresponding to protein dimer. […]
Analysis of StCsm6 (FIG. 23A) and StCsm6′ (FIG. 23B) cleavage of ssRNA NS in the absence or presence of synthetic c(AMP)2 (c-di-AMP) (Sigma-Aldrich) or HPLC isolated c(AMP)3, c(AMP)4, c(AMP)5 (synthesized by StCsm from ATP) or c(AMP)6 (synthesized by StCsm from pp(pA)6 precursor). […] Samples were analyzed in denaturing PAAG, followed by phosphorimaging. […]

T1 sequence (A0A0A7HFE1 whole entry, the tested form may be a part): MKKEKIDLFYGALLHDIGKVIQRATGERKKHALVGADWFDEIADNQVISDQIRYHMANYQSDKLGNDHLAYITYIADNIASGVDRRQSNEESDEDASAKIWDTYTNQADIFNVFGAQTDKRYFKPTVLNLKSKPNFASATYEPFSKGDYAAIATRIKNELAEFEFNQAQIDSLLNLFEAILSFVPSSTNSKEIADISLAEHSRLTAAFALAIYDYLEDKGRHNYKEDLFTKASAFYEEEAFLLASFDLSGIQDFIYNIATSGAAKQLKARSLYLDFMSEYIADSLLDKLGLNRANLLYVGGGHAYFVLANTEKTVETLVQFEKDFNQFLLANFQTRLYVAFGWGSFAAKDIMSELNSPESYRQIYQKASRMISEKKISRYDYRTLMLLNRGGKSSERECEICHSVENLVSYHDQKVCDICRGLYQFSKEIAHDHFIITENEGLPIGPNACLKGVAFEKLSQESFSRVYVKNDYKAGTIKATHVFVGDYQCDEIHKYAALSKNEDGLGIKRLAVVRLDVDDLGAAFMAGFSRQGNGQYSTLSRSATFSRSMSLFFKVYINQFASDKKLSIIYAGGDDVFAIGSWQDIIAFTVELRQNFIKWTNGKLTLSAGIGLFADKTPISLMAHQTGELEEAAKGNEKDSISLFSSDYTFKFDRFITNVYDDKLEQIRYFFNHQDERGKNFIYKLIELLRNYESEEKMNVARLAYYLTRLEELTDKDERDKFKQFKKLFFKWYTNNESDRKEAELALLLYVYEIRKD
T1 sequence (A0A0A7HF79 whole entry, further chain, the tested form may be a part): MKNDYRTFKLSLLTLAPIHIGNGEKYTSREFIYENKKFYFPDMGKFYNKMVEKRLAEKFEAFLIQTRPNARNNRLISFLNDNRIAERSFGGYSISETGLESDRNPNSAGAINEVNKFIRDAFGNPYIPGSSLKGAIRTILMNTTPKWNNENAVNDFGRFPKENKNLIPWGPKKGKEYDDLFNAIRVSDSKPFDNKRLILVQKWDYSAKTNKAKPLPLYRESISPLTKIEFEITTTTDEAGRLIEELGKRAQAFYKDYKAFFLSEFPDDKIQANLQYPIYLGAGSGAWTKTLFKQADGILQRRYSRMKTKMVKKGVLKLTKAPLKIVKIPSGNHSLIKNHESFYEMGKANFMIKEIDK
T1 sequence (A0A0A7HIF0 whole entry, further chain, the tested form may be a part): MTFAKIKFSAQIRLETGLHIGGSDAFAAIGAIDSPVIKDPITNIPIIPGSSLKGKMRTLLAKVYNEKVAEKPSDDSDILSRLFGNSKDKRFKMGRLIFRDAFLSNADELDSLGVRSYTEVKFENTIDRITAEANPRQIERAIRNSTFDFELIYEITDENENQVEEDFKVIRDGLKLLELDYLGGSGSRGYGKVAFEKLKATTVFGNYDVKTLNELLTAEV
T1 sequence (A0A0A7HGA1 whole entry, further chain, the tested form may be a part): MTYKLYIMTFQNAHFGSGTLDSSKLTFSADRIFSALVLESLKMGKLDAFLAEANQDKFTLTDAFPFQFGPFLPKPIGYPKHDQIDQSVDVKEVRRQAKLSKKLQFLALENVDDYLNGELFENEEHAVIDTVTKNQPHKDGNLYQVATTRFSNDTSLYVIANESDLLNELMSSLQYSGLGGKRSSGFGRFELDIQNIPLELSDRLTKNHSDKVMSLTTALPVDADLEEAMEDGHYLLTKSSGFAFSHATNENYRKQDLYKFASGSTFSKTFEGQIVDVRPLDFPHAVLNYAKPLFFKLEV
T1 sequence (A0A0A7HIX1 whole entry, further chain, the tested form may be a part): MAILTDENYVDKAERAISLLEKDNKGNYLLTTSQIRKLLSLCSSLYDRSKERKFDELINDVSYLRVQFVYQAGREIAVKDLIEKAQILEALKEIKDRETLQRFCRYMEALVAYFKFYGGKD
T2 sequence (A0A0A7HFE1 whole entry): as the sequence (A0A0A7HFE1 whole entry, the tested form may be a part) above
T2 sequence (A0A0A7HGA1 whole entry, further chain): as the sequence (A0A0A7HGA1 whole entry, further chain, the tested form may be a part) above
T2 sequence (A0A0A7HIF0 whole entry, further chain): as the sequence (A0A0A7HIF0 whole entry, further chain, the tested form may be a part) above
T2 sequence (A0A0A7HIX1 whole entry, further chain): as the sequence (A0A0A7HIX1 whole entry, further chain, the tested form may be a part) above
T2 sequence (A0A0A7HF79 whole entry, further chain): as the sequence (A0A0A7HF79 whole entry, further chain, the tested form may be a part) above
T4 sequence (A0A0A7HFE6 whole entry): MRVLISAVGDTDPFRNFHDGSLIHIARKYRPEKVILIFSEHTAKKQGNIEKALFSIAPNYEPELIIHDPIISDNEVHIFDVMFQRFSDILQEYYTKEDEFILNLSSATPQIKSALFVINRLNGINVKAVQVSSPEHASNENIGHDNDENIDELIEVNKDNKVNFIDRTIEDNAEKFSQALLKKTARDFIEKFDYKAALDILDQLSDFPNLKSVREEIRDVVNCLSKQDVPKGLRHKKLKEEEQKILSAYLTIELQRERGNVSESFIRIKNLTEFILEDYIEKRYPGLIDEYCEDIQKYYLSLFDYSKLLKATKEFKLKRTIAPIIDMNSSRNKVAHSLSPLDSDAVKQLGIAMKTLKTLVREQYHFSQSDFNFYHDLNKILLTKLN

Nc1ncnc2c1ncn2[C@H]1C[C@H](O)[C@@H](COP(=O)(O)OP(=O)(O)OP(=O)(O)O)O1 [2′dATP]
binding affinity, ternary StCsm complex ([1]; target RNA bound (ternary StCsm complex)): visibly decreases | reaction products formed from the nucleotide alone (ternary StCsm complex): reacts with significantly lower efficiency

Nc1ncnc2c1ncn2[C@@H]1O[C@H](COP(=O)(O)OP(=O)(O)OP(=O)(O)O)C[C@H]1O [3′dATP]
reaction products formed from the nucleotide alone (ternary StCsm complex): does not produce any reaction products

Nc1ncnc2c1ncn2[C@@H]1O[C@H](COP(=O)(O)O)[C@@H](O)[C@H]1O [AMP, adenosine monophosphate]
reaction products formed from the nucleotide alone (ternary StCsm complex): yields no products

Nc1ncnc2c1ncn2[C@@H]1O[C@H](COP(=O)(O)OP(=O)(O)OP(=O)(O)O)[C@@H](O)[C@H]1O [ATP, adenosine triphosphate]
Kd ([1]; in the presence or absence of target RNA): 10 to 20 nM | inhibition of StCsm6 RNase (StCsm6; 1 mM ATP): inhibited

Nc1ccn([C@@H]2O[C@H](COP(=O)(O)OP(=O)(O)OP(=O)(O)O)[C@@H](O)[C@H]2O)c(=O)n1 [CTP]
affinity towards nucleotide [1]: no significant affinity | reaction products formed from the nucleotide alone (ternary StCsm complex): no reaction products are formed

Nc1nc2c(ncn2[C@@H]2O[C@H](COP(=O)(O)OP(=O)(O)OP(=O)(O)O)[C@@H](O)[C@H]2O)c(=O)[nH]1 [GTP]
affinity towards nucleotide [1]: no significant affinity | reaction products formed from the nucleotide alone (ternary StCsm complex): no reaction products are formed

O=c1ccn([C@@H]2O[C@H](COP(=O)(O)OP(=O)(O)OP(=O)(O)O)[C@@H](O)[C@H]2O)c(=O)[nH]1 [UTP]
affinity towards nucleotide [1]: no significant affinity | reaction products formed from the nucleotide alone (ternary StCsm complex): no reaction products are formed

Nc1ncnc2c1ncn2[C@@H]1O[C@@H]2COP(=O)(O)O[C@H]3[C@@H](O)[C@H](n4cnc5c(N)ncnc54)O[C@@H]3COP(=O)(O)O[C@H]2[C@H]1O [c(AMP)2, c-di-AMP]
stimulation of StCsm6′ ribonuclease activity (StCsm6′): only c(AMP)6 stimulated | stimulation of StCsm6 ribonuclease activity (StCsm6; ssRNA NS, 37° C. 30 min, 50 nM individual cyclic oligoadenylate): only c(AMP)6 stimulated
